According to patent US9938222B2 (BRISTOL-MYERS SQUIBB COMPANY, priority 2014, dated 2018):

Each compound was assayed against human GPR120 (Homo sapiens (Human), UniProt Q5NUL3) (assay: GPR120 pERK AlphaScreen SureFire Assay (human GPR120 pERK assay)). Conditions: CHO cells stably transfected with short form of human GPR120.
Assay type: cell-based
How it was run: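 CHOA12 cells stably expressing short-form human GPR120, serum-starved 2 h, then stimulated 7 min at 37° C with compound (33.33 μM to 0.56 nM, 11-point). Phospho-ERK1/2 read by AlphaScreen SureFire in lysates. Activation scaled between DMSO and 50 μM linolenic acid; EC50 from a 4-parameter logistic fit.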

Chain of human GPR120 (Q5NUL3 whole entry): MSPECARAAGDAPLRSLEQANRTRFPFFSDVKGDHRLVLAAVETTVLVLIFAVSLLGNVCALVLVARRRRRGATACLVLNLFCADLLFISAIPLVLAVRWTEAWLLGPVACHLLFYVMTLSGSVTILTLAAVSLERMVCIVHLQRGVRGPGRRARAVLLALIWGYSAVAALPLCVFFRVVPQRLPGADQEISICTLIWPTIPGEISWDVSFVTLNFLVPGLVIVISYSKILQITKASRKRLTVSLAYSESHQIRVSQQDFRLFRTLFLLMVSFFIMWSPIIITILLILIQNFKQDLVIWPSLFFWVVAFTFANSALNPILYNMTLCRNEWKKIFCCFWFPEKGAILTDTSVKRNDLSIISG

SMILES	EC50 [µM]	EC50 (μM)
Cc1nn(Cc2ccccc2)cc1-c1ccc(OC[C@@H]2C[C@H]2C(=O)O)cc1 (racemic) [Example 84, Trans-2-((4-(1-benzyl-3-methyl-1H-pyrazol-4-yl)phenoxy)methyl) cyclopropanecarboxylic acid]	4.31	
C=C(C)COc1cc(F)cc(-c2ccc(OC[C@@H]3C[C@H]3C(=O)O)cc2)c1 (racemic) [Example 19, Trans-2-(((3′-fluoro-5′-((2-methylallyl)oxy)-[1,1′-biphenyl]-4-yl)oxy)methyl) cyclopropanecarboxylic acid]		Not active
O=C(O)[C@@H]1C[C@H]1COc1ccc(-c2cc(C(F)(F)F)ccc2Cl)cc1 (racemic) [Example 121, Trans-2-(((2′-chloro-5′-(trifluoromethyl)-[1,1′-biphenyl]-4-yl)oxy)methyl)cyclopropanecarboxylic acid]	1.25	
O=C(O)[C@@H]1C[C@H]1CCc1ccc(-c2cccc(Oc3ccccc3)c2)cc1 (racemic) [Example 75, Trans-2-(2-(3′-phenoxy-[1,1′-biphenyl]-4-yl)ethyl) cyclopropanecarboxylic acid]	0.18	
CC1(C)Cc2c(cc(F)cc2-c2ccc(OC[C@@H]3C[C@H]3C(=O)O)cc2)O1 (racemic) [Example 20, Trans-2-((4-(6-fluoro-2,2-dimethyl-2,3-dihydrobenzofuran-4-yl)phenoxy)methyl) cyclopropanecarboxylic acid]	0.99	
O=C(O)[C@@H]1C[C@H]1COc1ccc(-c2cc(Oc3cccc(F)c3)ccc2F)cc1F (relative stereo) [Example 96, Trans-2-(((2′,3-difluoro-5′-(3-fluorophenoxy)-[1,1′-biphenyl]-4-yl)oxy)methyl) cyclopropanecarboxylic acid]	0.18	
Cc1nc(-c2ccccc2)c(-c2ccc(CC[C@@H]3C[C@H]3C(=O)O)cc2)s1 (single isomer, unassigned) [Example 27, Trans-2-(4-(2-methyl-4-phenylthiazol-5-yl)phenethyl)cyclopropanecarboxylic acid]	1.23	
O=C(O)[C@@H]1C[C@H]1COc1ccc(-c2cc(OC3CCC3)ccc2F)cc1 (racemic) [Example 94, Trans-2-(((5′-cyclobutoxy-2′-fluoro-[1,1′-biphenyl]-4-yl)oxy)methyl) cyclopropanecarboxylic acid]	0.14	
O=C(O)[C@@H]1C[C@H]1COc1ccc(-c2cc(F)cc(Oc3ccccc3)c2)cc1 (racemic) [Example 23, Trans-2-(((3′-fluoro-5′-phenoxy-[1,1′-biphenyl]-4-yl)oxy)methyl)cyclopropanecarboxylic acid]	0.66	
CC1(C)Cc2cc(Cl)cc(-c3ccc(CC[C@@H]4C[C@H]4C(=O)O)cc3)c2O1 (single isomer, unassigned) [Example 26]	1.72	
O=C(O)[C@@H]1C[C@H]1COc1ccc(-c2cc(Oc3cccc(F)c3)cc(F)c2F)cc1F (single isomer, unassigned) [Example 106]	0.27	
CC(C)Oc1cc(Cl)cc(-c2ccc(OC[C@H]3C[C@@H]3C(=O)O)c(F)c2)c1 (single isomer, unassigned) [Example 14]	0.83	
Cc1ccc(Oc2ccc(F)c(-c3ccc(OCC4CC4C(=O)O)c(F)c3)c2)cc1F (racemic) [Example 100, Trans-2-(((2′,3-difluoro-5′-(3-fluoro-4-methylphenoxy)-[1,1′-biphenyl]-4-yl)oxy)methyl)cyclopropanecarboxylic acid]	0.26	
Cc1nn(Cc2ccc(Cl)cc2)cc1-c1ccc(OC[C@@H]2C[C@H]2C(=O)O)cc1 (racemic) [Example 85, Trans-2-((4-(1-(4-chlorobenzyl)-3-methyl-1H-pyrazol-4-yl)phenoxy)methyl) cyclopropanecarboxylic acid]	3.81	
Cc1ccc(Oc2ccc(F)c(-c3ccc(OCC4CC4C(=O)O)c(F)c3)c2)cc1F (single isomer, unassigned) [Example 102, Trans-2-(((2′,3-difluoro-5′-(3-fluoro-4-methylphenoxy)-[1,1′-biphenyl]-4-yl)oxy)methyl)cyclopropanecarboxylic acid]	0.27	
O=C(O)[C@@H]1C[C@H]1COc1ccc(-c2cc(Oc3ccc(Cl)cc3)ccc2F)cc1 (racemic) [Example 92, Trans-2-(((5′-(4-Chlorophenoxy)-2′-fluoro-[1,1′-biphenyl]-4-yl)oxy)methyl) cyclopropanecarboxylic acid]	0.3	
O=C(O)[C@H]1C[C@@H]1COc1ccc(-c2cc(Oc3ccccc3)ccc2F)cc1F (single isomer, unassigned) [Example 11]	0.16	

Continued, values first:

EC50 [µM]	EC50 (μM)	SMILES
0.18		O=C(O)[C@@H]1C[C@H]1COc1ccc(-c2cc(Oc3cccc(F)c3)ccc2F)cc1 (racemic) [Example 42, Trans-2-(((2′-fluoro-5′-(3-fluorophenoxy)-[1,1′-biphenyl]-4-yl)oxy)methyl)cyclopropanecarboxylic acid]
0.19		Cc1ccc(Oc2ccc(F)c(-c3ccc(OCC4C[C@H]4C(=O)O)cc3)c2)cn1 (stereo partly drawn) [Example 115]
0.31		Cc1cc(-c2cc(OC(C)C)ccc2F)ccc1OC[C@@H]1C[C@H]1C(=O)O (racemic) [Example 46, Trans-2-(((2′-fluoro-5′-isopropoxy-3-methyl-[1,1′-biphenyl]-4-yl)oxy)methyl)cyclopropanecarboxylic acid]
0.86		CC(C)Oc1ccc(F)c(-c2ccc(CC[C@H]3C[C@]3(C)C(=O)O)cc2)c1 (racemic) [Example 41, Trans-2-(2-(2′-fluoro-5′-isopropoxy-[1,1′-biphenyl]-4-yl)ethyl)-1-methylcyclopropanecarboxylic acid]
0.29		CC(C)Oc1ccc(F)c(-c2ccc(OC[C@H]3C[C@@H]3C(=O)O)c(F)c2)c1 (single isomer, unassigned) [Example 64]
2.04		CC(C)Oc1cc(-c2ccc(OC[C@@H]3C[C@H]3C(=O)O)cc2)cc(C(F)(F)F)c1 (racemic) [Example 47, Trans-2-(((3′-isopropoxy-5′-(trifluoromethyl)-[1,1′-biphenyl]-4-yl)oxy)methyl)cyclopropanecarboxylic acid]
0.14		Cc1ccc(Oc2ccc(F)c(-c3ccc(OC[C@@H]4C[C@H]4C(=O)O)cc3)c2)cn1 (racemic) [Example 114, Trans-2-(((2′-fluoro-5′-((6-methylpyridin-3-yl)oxy)-[1,1′-biphenyl]-4-yl)oxy)methyl) cyclopropanecarboxylic acid]
0.33		CC(C)Oc1cc(F)c(F)c(-c2ccc(OC[C@@H]3C[C@H]3C(=O)O)c(F)c2)c1 (racemic) [Example 65, Trans-2-(((2′,3,3′-trifluoro-5′-isopropoxy-[1,1′-biphenyl]-4-yl)oxy)methyl)cyclopropanecarboxylic acid]
0.94		CC(C)Oc1ccc(F)c(-c2ccc(OC[C@@H]3C[C@H]3C(=O)O)cc2)c1F (relative stereo) [Example 127, Trans-2-(((2′,6′-difluoro-3′-isopropoxy-[1,1′-biphenyl]-4-yl)oxy)methyl) cyclopropanecarboxylic acid]
2.34		COc1cc(Cl)cc(-c2ccc(CC[C@@H]3C[C@H]3C(=O)O)cc2)c1 (racemic) [Example 77, Trans-2-(2-(3′-chloro-5′-methoxy-[1,1′-biphenyl]-4-yl)ethyl) cyclopropanecarboxylic acid]
0.62		O=C(O)C1CC1COc1ccc(-c2cc(OC(F)(F)F)ccc2F)cc1 (single isomer, unassigned) [Example 52, Trans-2-(((2′-fluoro-5′-(trifluoromethoxy)-[1,1′-biphenyl]-4-yl)oxy)methyl)cyclopropanecarboxylic acid]
1.67		CC(C)Oc1cc(-c2ccc(OC[C@@H]3C[C@H]3C(=O)O)cc2)c(F)c(C(F)(F)F)c1 (racemic) [Example 49, Trans-2-(((2′-fluoro-5′-isopropoxy-3′-(trifluoromethyl)-[1,1′-biphenyl]-4-yl)oxy)methyl)cyclopropanecarboxylic acid]
0.23		CC(C)Oc1cc(F)c(F)c(-c2ccc(OC[C@H]3C[C@@H]3C(=O)O)c(F)c2)c1 [Example 67, (1S,2S)-2-(((2′,3,3′-Trifluoro-5′-isopropoxy-[1,1′-biphenyl]-4-yl)oxy)methyl)cyclopropanecarboxylic acid]
5.09		CC(C)Oc1ccc(F)c(-c2ccc(CC[C@]3(F)C[C@@H]3C(=O)O)cc2)c1 (racemic) [Example 40, Trans-2-fluoro-2-(2-(2′-fluoro-5′-isopropoxy-[1,1′-biphenyl]-4-yl)ethyl) cyclopropanecarboxylic acid]
0.93		CC(C)Oc1ccc(F)c(-c2ccc(OC[C@@H]3C[C@H]3C(=O)O)c(CC=O)c2)c1 (racemic) [Example 90, Trans-2-(((2′-fluoro-5′-isopropoxy-3-(2-oxoethyl)-[1,1′-biphenyl]-4-yl)oxy)methyl) cyclopropanecarboxylic acid]
0.27		O=C(O)[C@@H]1C[C@H]1COc1ccc(-c2cc(Oc3ccc(F)cc3)ccc2F)cc1 (racemic) [Example 44, Trans-2-(((2′-fluoro-5′-(4-fluorophenoxy)-[1,1′-biphenyl]-4-yl)oxy)methyl)cyclopropanecarboxylic acid]
2.02		CC(C)Oc1ccc(F)c(-c2ccc(CC[C@]3(F)C[C@H]3C(=O)O)cc2)c1 (racemic) [Example 39, Cis-2-fluoro-2-(2-(2′-fluoro-5′-isopropoxy-[1,1′-biphenyl]-4-yl)ethyl) cyclopropanecarboxylic acid]
2.65		CC(C)Oc1ccc(F)c(-c2ccc(CO[C@@H]3C[C@H]3C(=O)O)cc2)c1 (relative stereo) [Example 37, Trans-2-((2′-fluoro-5′-isopropoxy-[1,1′-biphenyl]-4-yl)methoxy)cyclopropanecarboxylic acid]
0.06		CC(C)Oc1ccc(F)c(-c2ccc(C[C@H]3C[C@@H]3CC(=O)O)cc2)c1 (racemic) [Example 33, Trans-2-(2-((2′-fluoro-5′-isopropoxy-[1,1′-biphenyl]-4-yl)methyl)cyclopropyl)acetic acid]
